Common to all, as to experiment: growth of human tumour cells (NCI), 48 h
In test [1] the test system is K-562 leukemia.
The test system of test [2] is OVCAR-8 ovarian.
The subject of test [3] is SR leukemia.
For test [4], the system named is SK-MEL-28 melanoma.
Test [5] has as its system BT-549 breast.
Test [6] relates to U251 CNS.
The subject of test [7] is HCT-116 colon.
For test [8], the system named is NCI-H23 lung.
Test [9] has as its system OVCAR-3 ovarian.
Test [10] relates to CAKI-1 renal.

Each structure is given as a SMILES string.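 96-well plates; 48 h exposure; 5 concentrations. Endpoints by linear interpolation between flanking doses. Not reached: highest tested concentration assigned. At the GI50, growth is halved. TGI marks complete inhibition of growth.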 Bounds are passed on as bounds.

On to `COc1ccc(C(CC(=O)c2ccc(O)cc2)C(C(=O)c2ccc(O)cc2)C(c2ccc(OC)cc2)C2C(=O)NC(=S)NC2=O)cc1` (stereo unspecified), for which the TGI in test [1] was > 100 µM; in test [2], 60 µM; in test [3] it was > 100 µM; in [4], 48.8 µM; in [5], 47.9 µM; in test [6], 72.3 µM. Further, in test [7], the TGI was found to be 30.4 µM.

With `COc1ccc(/C=C2\NC(=S)N(CN3CCOCC3)C2=O)cc1`, the TGI in [1], in test [2], in test [8], in test [3], in [4] and in test [9] was > 100 µM each time. Further, the TGI in test [6] and in [7] was > 100 µM each time.

Regarding `COc1ccc([C@H]2C=C(c3cc(F)c(Cl)cc3Cl)N=c3s/c(=C\c4ccc(-c5ccc(Cl)cc5Cl)o4)c(=O)n32)cc1`, the TGI in [10], in test [1], in test [2], in test [8], in test [4] and in test [5] was > 100 µM each time. Besides, the TGI in [6] and in [7] was > 100 µM in each case.

`NC(=O)NC(=O)c1cccc(C(=O)NC(N)=O)n1`: the TGI in test [10], in test [1], in test [2], in [8], in [3] and in [4] was > 100 µM in each case. For the same compound, the TGI in [9], in [6] and in [7] was > 100 µM throughout.

As for `C=CCOC1=C(OC(C)=O)C(C2COC(C)(C)O2)OC1=O` (stereo unspecified), the TGI was 3.89 µM in test [10]; 35.9 µM in test [1]; > 100 µM in test [2]; 35 µM in test [8]; 46.7 µM in [4]; 31.9 µM in [9]. Further, the TGI is 60.1 µM in [5], 72.5 µM in [6] and 36 µM in test [7].

With `Cc1cc(NS(=O)(=O)c2ccc(N=Nc3c(Nc4ccccc4)nn(-c4ccc(S(=O)(=O)Nc5ccncn5)cc4)c3C)cc2)no1`, the TGI in test [10], in [1], in test [2], in [8], in test [4] and in test [9] was > 100 µM each time. Moreover, the TGI in test [6] and in test [7] was > 100 µM each time.

Take `O=[N+]([O-])c1ccc(N/N=C\c2ccc(O)cc2O)nc1`: the GI50 in [10] is 1.68 µM; in test [2] it was 1.52 µM; in test [8], 3.39 µM; in [4], 5.03 µM; in test [9], 0.398 µM; in test [5], 6.06 µM. Further, the GI50 in test [6] was 2.08 µM; in test [7], 2.11 µM. The TGI in [10] is 9.8 µM; in test [2] it was > 100 µM; in [8], > 100 µM; in test [4], > 100 µM; in test [9], 42.1 µM; in test [5] it was > 100 µM. Moreover, the TGI in test [6] and in test [7] was > 100 µM throughout.

For `COC(=O)CC(c1ccccc1)C(C#N)(OP1(=O)OC(c2ccccc2)C(C)N1C)c1ccccc1` (stereo unspecified), the TGI in test [10], in test [1], in test [2], in [8], in test [4] and in [9] was > 100 µM each time. Besides, the TGI in test [5], in test [6] and in [7] was > 100 µM throughout.

Regarding `CC1(C)CC(=O)C(/C=N/c2nc(-c3cccc([N+](=O)[O-])c3)cs2)=C(O)C1`, the TGI in test [10] is 23.4 µM; in test [1], 52.6 µM; in test [2] it was 96.2 µM; in test [8] it was 37.3 µM; in test [9] it was > 100 µM; in [5], 54 µM. In addition, the TGI in test [6] was 46.4 µM; in test [7], 28.1 µM.

For the compound `COC(=O)c1cc(OCc2cc(OCc3ccc(Br)cc3)cc(OCc3ccc(Br)cc3)c2)cc(OCc2cc(OCc3ccc(Br)cc3)cc(OCc3ccc(Br)cc3)c2)c1`, the TGI in test [10], in test [1], in [8], in test [4], in test [9] and in [5] was > 100 µM each time. Further, the TGI in [6] and in [7] was > 100 µM throughout.

With `CSc1nnc2n1-c1ccccc1SCC2`, the TGI in [1], in test [2], in test [8], in test [3], in [4] and in [9] was > 100 µM each time. The TGI in test [6] and in test [7] was > 100 µM each time.

On to `Cc1cccc(C)c1NC(=O)/C(CC(=O)CC(c1ccccc1)c1c(O)c2ccccc2oc1=O)=N/O` (stereo unspecified), for which the TGI in test [10], in test [2], in test [8], in [4], in [9] and in test [5] was > 100 µM each time. In addition, the TGI in test [6] and in test [7] was > 100 µM in each case.

With `O=c1ccc2c(Cl)sc(Cl)c2[nH]1`, the TGI in test [10], in test [1], in [2], in test [8], in [4] and in [9] was > 100 µM throughout. The TGI in [5], in test [6] and in [7] was > 100 µM each time.

For `NCCCCNCCCNC(=O)c1csc(-c2nc(CCN)sc2Cl)n1`, the TGI in test [1], in test [2], in test [8], in test [4], in [9] and in test [5] was > 100 µM in each case. Moreover, the TGI in test [6] and in test [7] was > 100 µM in each case.

`COc1ccc(C2=Nn3c(C)nnc3S/C2=C\c2ccc(-c3ccc([N+](=O)[O-])cc3)o2)cc1`: the TGI in [10] was found to be 29.1 µM; in [1], 17.7 µM; in test [2], 15.9 µM; in test [8], 28.5 µM; in test [9] it was 33 µM; in test [5] it was 19 µM. Also, the results for the TGI in [6] and in [7] were 45.8 µM and 26.1 µM, respectively.

The values are drawn from PubChem BioAssay (NCI).
